Measured values: patent US20090253757A1, “Plant protection agents” (priority 1996, published 2009)

System: Erysiphe graminis
Test: Activity against Erysiphe graminis on barley (residual protective / systemic)
Format: in vivo
Text: A synergistic effect is present if the activity of the active ingredient combination is greater than the sum of activities of the individual components. The activity E to be expected for a given active ingredient combination obeys the so-called COLBY formula and may be calculated as follows (COLBY, S. R. “Calculating synergistic and antagonistic responses of herbicide combination”. Weeds, Vol. 15, pages 20-22; 1967): ppm=milligrams active ingredient (=ai) per litre spray mixture X=% activity from active ingredient I during application of p ppm of active ingredient Y=% activity from active ingredient II during application of q ppm of active ingredient The expected (additive) activity of active ingredients I+II during application of […] active ingredient is, according to Colby If the activity actually observed (O) is greater than the expected activity (E), then the combination is super-additive in its activity, i.e. there is a synergistic effect ([…] factor). Barley plants of approximately 8 cm height are sprayed until dripping wet with an aqueous spray mixture prepared from wettable powder of the active ingredient mixture, and 3 to 4 hours later are dusted with conidia of the fungus. The infected plants are placed in a greenhouse at […]. 12 days after infection, the fungal attack is evaluated. An aqueous spray mixture prepared from wettable powder of the active ingredient mixture is poured onto barley plants of approximately 8 cm height. […] 48 hours later, the plants are dusted with conidia of the fungus. The infected plants are placed in a greenhouse at 22° C. 12 days after infection, the fungal attack is evaluated.

| Compound | inhibition at 0.1 µg/mL (Blumeria graminis, active ingredient IIA 0.1 mg/litre alone, read-out: % activity found O) [%] | inhibition at 0.5 µg/mL (Blumeria graminis, active ingredient IIA 0.5 mg/litre alone, read-out: % activity found O) [%] | inhibition at 1 µg/mL (Blumeria graminis, active ingredient IIA 1.0 mg/litre alone, read-out: % activity found O) [%] | inhibition at 10 µg/mL (Blumeria graminis, active ingredient IIA 10.0 mg/litre alone, read-out: % activity found O) [%] | % activity found O (active ingredient I 0.1 mg/litre alone) [%] | % activity found O (active ingredient I 1.0 mg/litre alone) [%] |
| --- | --- | --- | --- | --- | --- | --- |
| Fc1ccc(Oc2ccnc3cc(Cl)cc(Cl)c23)cc1 [IIA, 5,7-dichloro-4-(4-fluorophenoxy)quinoline] | 4 | 6 | 8 | 21 |  |  |
| CON=C(C(=O)OC)c1ccccc1CON=C(C)c1cccc(C(F)(F)F)c1 [I, 2-[α-{[(α-methyl-3-trifluoromethyl-benzyl)imino]-oxy}-o-tolyl]-glyoxylic acid-methylester-O-methyloxime] |  |  |  |  | 6 | 30 |
